In patent publication US11219621B2, “Methods for treating immunodeficiency disease” (X4 Pharmaceuticals, Inc., priority 2015, dated 2022):

Experiments:
CCR5 = target: T1, CCR5 (Homo sapiens, UniProt P51681); details: cited from earlier work
T1 construct: expressed in transfected cells

BLT1 = target: T2, BLT1 (Homo sapiens, UniProt Q15722); details: cited from earlier work
T2 construct: expressed in transfected cells

CXCR7 = target: T3, CXCR7 (Homo sapiens, UniProt P25106); set-up: Inhibition of SDF-1α binding to CXCR7: dose or concentration left out as unconfirmed; details: cited from earlier work
T3 construct: expressed in transfected cells

[1] = system: granulocyte-macrophage (CFU-GM), erythroid (BFU-E) and multipotential (CFU-GEMM) progenitor cells; assay: Progenitor/stem cell mobilization in mice after single subcutaneous injection; format: in vivo, C3H/HeJ mice; details: for BFU (BFU-E), Mean / GEMM (CFU-GEMM), Mean / GM (CFU-GM), Mean: progenitor cells per mL of blood
Experimental: All experiments were performed in […] mice. […] The progenitors were stimulated to form colonies in vitro with the combination of 1 U/mL rhu EPO, 50 ng/mL rmu SLF, 5% vol/vol pokeweed mitogen mouse spleen cell conditioned medium (PWMSCM), and 0.1 mM hemin. Plates were scored 7 days after incubation at 37° C., 5% CO2, lowered […] and in a humidified chamber.
In the first experiment (data shown in Table 6), mice received a dose of 5 mg/kg- and the number of progenitors in the circulating blood was measured at various time points (0.25, 0.5, 1, 2, 6 and 24 hours).

[2] = Clinical studies, oral administration to healthy volunteers and HIV patients
CCR1 = target: T4, CCR1 (Homo sapiens, UniProt P32246); details: cited from earlier work
T4 construct: expressed in transfected cells; host or cells: HEK293F
T4 sequence (P32246 1-355): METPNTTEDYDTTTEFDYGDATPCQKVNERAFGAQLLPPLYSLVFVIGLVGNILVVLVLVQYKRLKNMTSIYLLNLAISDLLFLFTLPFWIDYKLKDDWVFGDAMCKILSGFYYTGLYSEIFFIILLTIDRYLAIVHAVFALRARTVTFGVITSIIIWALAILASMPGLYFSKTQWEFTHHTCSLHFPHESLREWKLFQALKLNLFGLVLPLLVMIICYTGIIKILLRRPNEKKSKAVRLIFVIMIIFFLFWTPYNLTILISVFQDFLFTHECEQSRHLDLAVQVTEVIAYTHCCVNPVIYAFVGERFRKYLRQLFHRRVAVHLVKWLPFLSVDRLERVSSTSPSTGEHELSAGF

[3] = system: granulocyte-macrophage (CFU-GM), erythroid (BFU-E) and multipotential (CFU-GEMM) progenitor cells; assay: Progenitor/stem cell mobilization in mice after single subcutaneous injection; format: in vivo, C3H/HeJ mice
[4] = Table 6, 5 mg/kg s.c., @ - 2′ (2 h)
[5] = Table 6, 5 mg/kg s.c., @ - 6′ (6 h)
[6] = Table 6, 5 mg/kg s.c., @ - 15″ ([…])
[7] = Table 6, 5 mg/kg s.c., @ - 24′ (24 h)
[8] = Table 6, 5 mg/kg s.c., @ - 30″ (0.5 h)
[9] = Table 6, 5 mg/kg s.c., @ - 60″ (1 h)
[10] = Table 7, 1 hour post-injection, 1.5 mg/kg s.c.
[11] = Table 7, 1 hour post-injection, 5 mg/kg s.c.
[12] = Table 7, 1 hour post-injection, 10 mg/kg s.c.
[13] = Table 7, 1 hour post-injection, 20 mg/kg s.c.
[14] = Table 8, 5 mg/kg s.c., @ - 2′ (2 h)
[15] = Table 8, 5 mg/kg s.c., @ - 15″ ([…])
[16] = Table 8, 5 mg/kg s.c., @ - 30″ (0.5 h)
[17] = Table 8, 5 mg/kg s.c., @ - 60″ (1 h)
[18] = time course, 5 mg/kg s.c., 30-60 min.

T3 sequence (P25106 whole entry): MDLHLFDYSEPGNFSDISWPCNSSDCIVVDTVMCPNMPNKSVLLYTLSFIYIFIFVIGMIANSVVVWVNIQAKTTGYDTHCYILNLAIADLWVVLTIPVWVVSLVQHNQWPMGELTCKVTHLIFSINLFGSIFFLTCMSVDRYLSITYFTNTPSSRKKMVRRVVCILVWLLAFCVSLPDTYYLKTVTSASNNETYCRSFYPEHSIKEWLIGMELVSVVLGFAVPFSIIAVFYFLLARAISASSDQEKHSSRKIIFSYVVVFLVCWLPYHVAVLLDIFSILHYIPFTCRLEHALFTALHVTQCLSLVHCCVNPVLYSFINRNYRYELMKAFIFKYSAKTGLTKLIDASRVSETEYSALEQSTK
T2 sequence (Q15722 whole entry): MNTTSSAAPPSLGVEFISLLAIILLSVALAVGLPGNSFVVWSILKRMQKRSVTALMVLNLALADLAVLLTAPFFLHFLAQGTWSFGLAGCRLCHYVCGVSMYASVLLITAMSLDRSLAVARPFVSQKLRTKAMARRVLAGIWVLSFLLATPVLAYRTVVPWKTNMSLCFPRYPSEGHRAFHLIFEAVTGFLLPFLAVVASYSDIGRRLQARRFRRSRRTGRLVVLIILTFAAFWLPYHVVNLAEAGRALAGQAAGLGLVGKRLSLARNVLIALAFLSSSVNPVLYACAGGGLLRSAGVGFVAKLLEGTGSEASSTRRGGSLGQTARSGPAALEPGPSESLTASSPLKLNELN
T1 sequence (P51681 whole entry): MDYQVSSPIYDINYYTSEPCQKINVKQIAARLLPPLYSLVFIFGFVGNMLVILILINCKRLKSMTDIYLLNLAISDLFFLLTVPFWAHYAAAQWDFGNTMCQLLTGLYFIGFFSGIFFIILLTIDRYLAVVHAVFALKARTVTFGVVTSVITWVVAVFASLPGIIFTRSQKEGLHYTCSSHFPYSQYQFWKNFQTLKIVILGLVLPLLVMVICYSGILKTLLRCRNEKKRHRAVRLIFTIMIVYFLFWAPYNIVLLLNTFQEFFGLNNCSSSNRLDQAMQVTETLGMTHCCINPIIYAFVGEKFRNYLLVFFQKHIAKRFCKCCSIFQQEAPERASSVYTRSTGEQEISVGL

In the case of `NCCCCN(Cc1nc2ccccc2[nH]1)[C@H]1CCCc2cccnc21` [X4P-001], the IC50 (CCR5; CCR5, HEK293F-CCR5, RANTES/CCL5, read-out: IC50 AMD11070) is given as > 50 µM, the “Inhibitory effect on RANTES mediated calcium flux (CCR5)” value (CCR5) is given as “little or no inhibitory effect” and the IC50 (BLT1; BLT1, CHO-S-LTB4, LTB4, ligand binding, read-out: IC50 AMD11070) is given as > 50 µM. For the same molecule, the “Inhibitory effect on LTB4 binding to BLT1” value (BLT1) was “little or no inhibitory effect”, the IC50 (CXCR7; CXCR7, Cf2Th.CXCR7, SDF-1α/CXCL12, ligand binding, read-out: IC50 AMD11070) was > 10 µM and the “Inhibitory effect on SDF-1α binding to CXCR7” value (CXCR7) was “little or no inhibitory effect”. For the same molecule, the “Inhibition of SDF-1α binding to CXCR7” value (CXCR7; the maximum concentration tested) was “did not inhibit”, the “BFU (BFU-E), Mean” value [1, 4] was 165.3 and the “GEMM (CFU-GEMM), Mean” value [1, 4] was 68.9. For the same molecule, the “GM (CFU-GM), Mean” value [1, 4] was 897.5, the “BFU (BFU-E), Mean” value [1, 5] was 99.9 and the “GEMM (CFU-GEMM), Mean” value [1, 5] was 37.6. The “GM (CFU-GM), Mean” value [1, 5] was 387.5, the “BFU (BFU-E), Mean” value [1, 6] was 148.8 and the “GEMM (CFU-GEMM), Mean” value [1, 6] was 65.6. The “GM (CFU-GM), Mean” value [1, 6] was 785.1, the “BFU (BFU-E), Mean” value [1, 7] was 84.6 and the “GEMM (CFU-GEMM), Mean” value [1, 7] was 37.7. For the same molecule, the “GM (CFU-GM), Mean” value [1, 7] was 386.3, the “BFU (BFU-E), Mean” value [1, 8] was 230.4 and the “GEMM (CFU-GEMM), Mean” value [1, 8] was 99.6. For the same molecule, the “GM (CFU-GM), Mean” value [1, 8] was 1273.8, the “BFU (BFU-E), Mean” value [1, 9] was 235.1 and the “GEMM (CFU-GEMM), Mean” value [1, 9] was 103.1. For the same molecule, the “GM (CFU-GM), Mean” value [1, 9] was 866.0, the “Nucleated Cellularity PBL-LD, Mean” value ([1]; Table 6 time course, 5 mg/kg s.c., @ - 2′ (2 h)) was 8.29e+06 mL⁻¹ and the “Nucleated Cellularity PBL-LD, Mean” value ([1]; Table 6 time course, 5 mg/kg s.c., @ - 6′ (6 h)) was 5.66e+06 mL⁻¹. For the same molecule, the “Nucleated Cellularity PBL-LD, Mean” value ([1]; Table 6 time course, 5 mg/kg s.c., @ - 15″ ([…])) was 5.1e+06 mL⁻¹, the “Nucleated Cellularity PBL-LD, Mean” value ([1]; Table 6 time course, 5 mg/kg s.c., @ - 24′ (24 h)) was 4.31e+06 mL⁻¹ and the “Nucleated Cellularity PBL-LD, Mean” value ([1]; Table 6 time course, 5 mg/kg s.c., @ - 30″ (0.5 h)) was 6.14e+06 mL⁻¹. The “Nucleated Cellularity PBL-LD, Mean” value ([1]; Table 6 time course, 5 mg/kg s.c., @ - 60″ (1 h)) was 6.92e+06 mL⁻¹, the “BFU (BFU-E), Mean” value [1, 10] was 143.8 and the “GM (CFU-GM), Mean” value [1, 10] was 428.0. The “BFU (BFU-E), Mean” value [1, 11] was 181.6, the “GEMM (CFU-GEMM), Mean” value [1, 11] was 141.0 and the “GM (CFU-GM), Mean” value [1, 11] was 1119.8. For the same molecule, the “GEMM (CFU-GEMM), Mean” value [1, 12] was 224.4, the “GM (CFU-GM), Mean” value [1, 12] was 1444.2 and the “BFU (BFU-E), Mean” value [1, 13] was 261.4. For the same molecule, the “GEMM (CFU-GEMM), Mean” value [1, 13] was 145.0, the “GM (CFU-GM), Mean” value [1, 13] was 1314.2 and the “Nucleated Cellularity PBL-LD, Mean” value ([1]; Table 7 dose response, 1 hour post-injection, 1.5 mg/kg s.c.) was 6.94e+06 mL⁻¹. For the same molecule, the “Nucleated Cellularity PBL-LD, Mean” value ([1]; Table 7 dose response, 1 hour post-injection, 5 mg/kg s.c.) was 7.65e+06 mL⁻¹, the “Nucleated Cellularity PBL-LD, Mean” value ([1]; Table 7 dose response, 1 hour post-injection, 10 mg/kg s.c.) was 9.94e+06 mL⁻¹ and the “BFU (BFU-E), Mean” value [1, 14] was 108.5. For the same molecule, the “GEMM (CFU-GEMM), Mean” value [1, 14] was 62.4, the “GM (CFU-GM), Mean” value [1, 14] was 619.6 and the “BFU (BFU-E), Mean” value [1, 15] was 188.9. The “GEMM (CFU-GEMM), Mean” value [1, 15] was 93.8, the “GM (CFU-GM), Mean” value [1, 15] was 588.3 and the “GEMM (CFU-GEMM), Mean” value [1, 16] was 79.0. The “GM (CFU-GM), Mean” value [1, 16] was 705.9, the “GEMM (CFU-GEMM), Mean” value [1, 17] was 102.2 and the “GM (CFU-GM), Mean” value [1, 17] was 761.4. For the same molecule, the “Nucleated Cellularity PBL-LD, Mean” value ([1]; Table 8 comparison, 5 mg/kg s.c., @ - 2′ (2 h)) was 9.71e+06 mL⁻¹, the “Nucleated Cellularity PBL-LD, Mean” value ([1]; Table 8 comparison, 5 mg/kg s.c., @ - 15″ ([…])) was 8.04e+06 mL⁻¹ and the “Nucleated Cellularity PBL-LD, Mean” value ([1]; Table 8 comparison, 5 mg/kg s.c., @ - 30″ (0.5 h)) was 8.28e+06 mL⁻¹. The “Nucleated Cellularity PBL-LD, Mean” value ([1]; Table 8 comparison, 5 mg/kg s.c., @ - 60″ (1 h)) was 7.34e+06 mL⁻¹, the “Peak increase of BFU-E over control (saline injection)” value [1, 18] was 2.49-2.54 fold and the “Peak increase of CFU-GEMM over control (saline injection)” value [1, 18] was 2.58-2.67 fold. For the same molecule, the “Peak increase of CFU-GM over control (saline injection)” value ([1]; time course, 5 mg/kg s.c., 30 min.) was 4.21 fold, the “Time of peak of nucleated cell mobilization” value ([1]; time course, 5 mg/kg s.c., approximately) was 1-2 hours post-injection and the “Number of circulating progenitors” value ([1]; up to a dose of 5-10 mg/kg s.c.) was “dose-dependently increased”. The “Pharmacodynamic activity, circulating white blood cells (WBCs)” value ([2]; healthy volunteers and HIV patients) was “dose- and concentration-related changes”, the “Increases in WBC counts” value ([2]; human subjects, dose-dependent, FIG. 9) was 2-3 × and the IC50 (CCR1; CCR1, HEK293F-CCR1, MIP-1α/CCL3, read-out: IC50 AMD11070) was > 50 µM. The “Inhibitory effect on MIP1α mediated calcium flux (CCR1)” value (CCR1) was “little or no inhibitory effect”, the “GEMM (CFU-GEMM), Mean” value ([3]; Table 7, progenitor cells per mL of blood, 1 hour post-injection, 1.5 mg/kg s.c.) was 53.3 and the “BFU (BFU-E), Mean” value ([3]; Table 7, progenitor cells per mL of blood, 1 hour post-injection, 10 mg/kg s.c.) was 268.1. For the same molecule, the “Nucleated Cellularity PBL-LD, Mean” value ([3]; Table 7 dose response, 1 hour post-injection, 20 mg/kg s.c.) was 9.62e+06 mL⁻¹, the “BFU (BFU-E), Mean” value ([3]; Table 8, progenitor cells per mL of blood, 5 mg/kg s.c., @ - 30″ (0.5 h)) was 151.9 and the “BFU (BFU-E), Mean” value ([3]; Table 8, progenitor cells per mL of blood, 5 mg/kg s.c., @ - 60″ (1 h)) was 144.3.
